Test results taken from patent US4935240A, “Benzoylaminophenoxybutanoic acid derivatives” (Ono Pharmaceutical Co., Ltd., priority 1987, dated 1990).

Biological target: 5α-reductase
Assay: 5α-reductase inhibitory activity in vitro
Assay type: biochemical
Conditions: rat prostate enzyme, [4-C14]testosterone + NADPH, 60 mins at 37° C.
Experimental: 5α-reductase inhibitory activity in vitro
Inhibitory activity on 5α-reductase in vitro was measured by the following test system.
The test was carried out by being referred to the method of J. Shimazaki et al [See Endocrinol, Japan., 18, 179 (1971)].
Male rats' prostate (4g) was homogenized with its 3-fold volume of 0.1 M HEPES buffer (pH 7.4) including 0.25 M cane sugar, and was centrifuged at 3000 r.p.m. for 10 mins.
The precipitate was suspended into the buffer solution described above (10 ml), and the suspension was centrifuged at 3000 r.p.m. for 5 mins. The resulting precipitated was suspended in the buffer solution (3 ml) described above and was used as a sauce of enzyme.
A reaction mixture (total volume 0.1 ml) of [4-c^14 ]testosterone (1.5n mol, 1.5×10^5 cpm), NADPH (0.5 μmol), enzyme solution (0.03 ml) described above and several kinds of concentration of the compounds in the present invention was incubated for 60 mins at 37° C. Enzyme reaction was quenched by addition of a mixture (0.4 ml) of chloroform and methanol (1:2), and the mixture was centrifuged at 2000 r.p.m. for 3 mins. The supernatant (50 μl) was spotted on silica gel thin layer plate. The spot on the plate was developed with a mixture of chloroform, methanol and acetic acid (99.2:0.6:0.2). Radioactivity of dihydrotestosterone generated on the plate was measured by TLC scanner of radio-autography and inhibitory ratio was calculated.

| SMILES | IC50 [nM] |
| --- | --- |
| CCCc1ccc(CNc2ccc(C(=O)Nc3ccccc3SCCCC(=O)O)c(C)c2)cc1 [3(a), 4-[2-[4-(4-propylbenzylamino)-2-methylbenzoylamino]phenylthio] butanoic acid] | 56 |
| Cc1cc(N(Cc2ccc(CC(C)C)cc2)Cc2ccc(CC(C)C)cc2)ccc1C(=O)Nc1ccccc1OCCCC(=O)O [2(b), 4-[2-[4-[N, N-bis(4-isobutylbenzyl)amino]-2-methylbenzoylamino]phenoxy]butanoic] | 25 |
| CCCc1ccc(CN(Cc2ccc(CCC)cc2)c2ccc(C(=O)Nc3ccccc3OCCCC(=O)O)c(C)c2)cc1 [Example 2, 4-[2-[2-methyl-4-[N,N-bis(4-propylbenzyl)amino]benzoylamino]phenoxy]butanoic acid] | 11 |
| CCCc1ccc(C(Nc2ccc(C(=O)Nc3ccccc3OCCCC(=O)O)c(C)c2)c2ccc(CCC)cc2)cc1 [2(r), 4-[2-[4-[bis(4-propylphenyl)methylamino]-2-methylbenzoylamino]phenoxy] butanoic] | 2.5 |
| Cc1cc(N(Cc2ccc(C(F)(F)F)cc2)Cc2ccc(C(F)(F)F)cc2)ccc1C(=O)Nc1ccccc1OCCCC(=O)O [2(k), 4-[2-[4-[N,N-bis-(4-trifluoromethylbenzyl)amino]-2-methylbenzoylamino]phenoxy] butanoic] | 580 |
| Cc1cc(NCc2ccc(C(C)C)cc2)ccc1C(=O)Nc1ccccc1OCCCC(=O)O [2(p), 4-[2-[4-(4-isopropylbenzylamino)-2-methylbenzoylamino]phenoxy] butanoic acid] | 80 |
| Cc1cc(NC(C)c2ccc(CC(C)C)cc2)ccc1C(=O)Nc1ccccc1OCCCC(=O)O (centres unmarked) [2(o), 4-[2-[4-[1-(4-isobutylphenyl)ethylamino]-2-methylbenzoylamino]pehnoxy]butanoic] | 35 |
| Cc1cc(N(CCCCc2ccccc2)CCCCc2ccccc2)ccc1C(=O)Nc1ccccc1OCCCC(=O)O [2(f), 4-[2-[4-[N, N-bis(4-phenylbutyl)amino]-2-methylbenzoylamino]phenoxy]butanoic] | 170 |
| CCCCCN(CCCCC)c1ccc(C(=O)Nc2ccccc2OCCCC(=O)O)c(C)c1 [2(c), 4-[2-[4-[N, N-dipenthylamino)-2-methylbenzoylamino]phenoxy] butanoic acid] | 300 |
| CCCc1ccc(C(Oc2ccc(C(=O)Nc3ccccc3OCCCC(=O)O)c(C)c2)c2ccc(CCC)cc2)cc1 [4(b), 4-[2-[4-[bis(4-propylphenyl)methoxy]-2-methylbenzoylamino]phenoxy]butanoic] | 6.5 |
| Cc1cc(NCc2ccccc2C(F)(F)F)ccc1C(=O)Nc1ccccc1OCCCC(=O)O [2(q), 4-[2-[4-(2-trifluoromethylbenzylamino)-2-methylbenzoylamino]phenoxy] butanoic] | 220 |
| Cc1cc(N(Cc2ccccc2C(F)(F)F)Cc2ccccc2C(F)(F)F)ccc1C(=O)Nc1ccccc1OCCCC(=O)O [2(j)] | 26 |
| Cc1cc(N(Cc2ccc(C(C)C)cc2)Cc2ccc(C(C)C)cc2)ccc1C(=O)Nc1ccccc1OCCCC(=O)O [2(g), 4-[2-[4-[N, N-bis(4-isopropylbenzyl)amino]-2-methylbenzoylamino]phenoxy] butanoic] | 27 |
| CCCCCN(Cc1ccc(CCC)cc1)c1ccc(C(=O)Nc2ccccc2OCCCC(=O)O)c(C)c1 [2(d)] | 25 |
| CCCc1ccc(CN(Cc2ccc(CCC)cc2)c2ccc(C(=O)Nc3ccccc3[S+]([O-])CCCC(=O)O)c(C)c2)cc1 (centres unmarked) [Example 5, 4-[2-[4-[N,N-bis(4-propylbenzyl)amino]-2-methylbenzoylamino]phenylsulfinyl]butanoic acid] | 65 |
| CCCc1ccc(CN(C(=O)c2ccc(CCC)cc2)c2ccc(C(=O)Nc3ccccc3OCCCC(=O)O)c(C)c2)cc1 [2(i)] | 150 |
| Cc1cc(N(Cc2ccc(F)cc2F)Cc2ccc(F)cc2F)ccc1C(=O)Nc1ccccc1OCCCC(=O)O [2(h)] | 140 |
| O=C(O)CCCOc1ccccc1NC(=O)c1ccc(OCCCCc2ccccc2)cc1 [1(g), 4-[2-[4-(4-phenylbutoxy)benzoylamino]phenoxy]butanoic acid] | 440 |
| CCCc1ccc(CN(Cc2ccc(CCC)cc2)c2ccc(C(=O)Nc3ccccc3SCCCC(=O)O)c(C)c2)cc1 [3(b), 4-[2-[4-[N,N-bis(4-propylbenzyl)amino]-2-methylbenzoylamino]phenylthio]butanoic] | 25 |
| CCCc1ccc(CN(Cc2ccc(CCC)cc2)c2ccc(C(=O)Nc3ccccc3OCCCC(=O)O)cc2)cc1 [2(a), 4-[2-[4-[N, N-bis(4-propylbenzyl)amino]benzoylamino]phenoxy] butanoic acid] | 23 |

Second part, the molecule after the results:

| IC50 [nM] | SMILES |
| --- | --- |
| 200 | O=C(O)CCCOc1ccccc1NC(=O)c1ccc(OCc2ccccc2)cc1 [1(a), 4-[2-(4-benzyloxybenzoylamino)phenoxy]butanoic acid] |
| 80 | CC(C)Cc1ccc(COc2ccc(C(=O)Nc3ccccc3OCCCC(=O)O)cc2)cc1 [Example 1, 4-[2-[4-(4-isobutylphenylmethoxy)benzoylamino]phenoxy]butanoicacid] |
| > 20000 | O=C(O)CCCOc1ccccc1NC(=O)c1ccc(OCCCCc2ccccc2)cc1 [Compared compound 2, reference compound] |
| 3 | CCCc1ccc(C(Oc2ccc(C(=O)Nc3ccccc3OCCCC(=O)O)cc2)c2ccc(CCC)cc2)cc1 [4(a), 4-[2-[4-[bis(4-propylphenyl)methoxy]benzoylamino]phenoxy] butanoic acid] |
| 11 | CCCc1ccc(C(Nc2ccc(C(=O)Nc3ccccc3OCCCC(=O)O)cc2)c2ccc(CCC)cc2)cc1 [2(s), 4-[2-[4-[bis(4-propylphenyl)methylamino]benzoylamino]phenoxy] butanoic acid] |
| 130 | CCCc1ccc(COc2ccc(C(=O)Nc3ccccc3OCCCC(=O)O)cc2)cc1 [1(d), 4-[2-[4-(4-propylphenylmethoxy)benzoylamino]phenoxy]butanoic acid] |
| 120 | Cc1cc(NCc2ccc(CC(C)C)cc2)ccc1C(=O)Nc1ccccc1OCCCC(=O)O [2(m), 4-[2-[4-(4-isobutylbenzylamino)-2-methylbenzoylamino]phenoxy] butanoic acid] |
| 320 | CCc1ccc(COc2ccc(C(=O)Nc3ccccc3OCCCC(=O)O)cc2)cc1 [1(c), 4-[2-[4-(4-ethylphenylmethoxy)benzoylamino]phenoxy]butanoic acid] |
| 330 | Cc1ccc(COc2ccc(C(=O)Nc3ccccc3OCCCC(=O)O)cc2)cc1 [1(b), 4-[2-[4-(4-methylphenylmethoxy)benzoylamino]phenoxy]butanoic acid] |
| 150 | CC(C)Cc1ccc(CNc2ccc(C(=O)Nc3ccccc3OCCCC(=O)O)cc2)cc1 [2(l), 4-[2-[4-(4-isobutylbenzylamino)benzoylamino]phenoxy] butanoic acid] |
| 40 | CCCc1ccc(CNc2ccc(C(=O)Nc3ccccc3OCCCC(=O)O)c(C)c2)cc1 [2(n), 4-[2-[4-(4-propylbenzylamino)-2-methylbenzoylamino]phenoxy] butanoic acid] |
| 570 | Cc1cc(OCc2ccc(CC(C)C)cc2)ccc1C(=O)Nc1ccccc1OCCCC(=O)O [1(h), 4-[2-[4-(4-isobutyphenylmethoxy)-2-methylbenzoylamino]phenoxy]butanoic acid] |
| 200 | O=C(O)CCCOc1ccccc1NC(=O)c1ccc(OCCCc2ccccc2)cc1 [1(f), 4-[2-[4-(3-phenylpropoxy)benzoylamino]phenoxy]butanoic acid] |
| 44 | CCCc1ccc(CN(C)c2ccc(C(=O)Nc3ccccc3OCCCC(=O)O)c(C)c2)cc1 [2(e), 4-[2-[4-[N-methyl-N-(4-propylbenzyl)amino]-2-methylbenzoylamino]phenoxy]butanoic] |
| 220 | CC(C)c1ccc(COc2ccc(C(=O)Nc3ccccc3OCCCC(=O)O)cc2)cc1 [1(e), 4-[2-[4-(4-isopropylphenylmethoxy)benzoylamino]phenoxy]butanoic acid] |
| 230 | O=C(O)CCCOc1ccccc1NC(=O)c1ccc(CNc2cccc3c2CCCC3)cc1 [6(b), 4-[2-[4-(5,6,7,8-tetrahydronaphthalene-1-yl)aminomethylbenzoylamino]phenoxy] butanoic] |
| 140 | CN(Cc1ccc(C(=O)Nc2ccccc2OCCCC(=O)O)cc1)c1cccc2c1CCCC2 [6(c), 4-[2-[4-[N-methyl-N-(5,6,7,8,- tetrahydronaphthalene-1-yl)aminomethyl]benzoylamino]phenoxy] butanoic acid] |
| 430 | Cc1cc(C(=O)Nc2ccccc2OCCCC(=O)O)ccc1OCc1ccc(CC(C)C)cc1 [1(i), 4-[2-[4-(4-isobutyphenylmethoxy)-3-methylbenzoylamino]phenoxy]butanoic acid] |
